One compound from PMC8002452, “Molecular Basis of AmpC β-Lactamase Induction by Avibactam in Pseudomonas aeruginosa: PBP Occupancy, Live Cell Binding Dynamics and Impact on Resistant Clinical Isolates Harboring PDC-X Variants” (International Journal of Molecular Sciences, 2021) can be followed below.

The target of assay [1] is T1, PBP4 (Pseudomonas aeruginosa, UniProt Q9HZG1). The assay is described as follows: PBP-binding affinity (IC50), bocillin FL, isolated membranes. Further details: species or system P. aeruginosa PAO1. The settings on record: PAO1 membranes 0.5 mg/mL, 30 min, 25 µM bocillin FL; read-out: Mean IC50 ± SD, PBP 4 (converted). Here is the method:
(§1) PBP-binding affinity was determined using previously described methods. Briefly, P. aeruginosa PAO1 cultures grown to the midexponential phase (7.6 log10 CFU/mL) were incubated in CAMHB at 37 °C and 180 rpm, washed and centrifuged (3220× g for 10 min at 4 °C). Bacterial pellets were washed in 30 mL of PBS buffer (pH 7.5), resuspended in 10 mL of PBS and sonicated at 40% amplitude for three 2 min bursts (while immersed in an ice bath) and centrifuged at 3220× g for 15 min at 4 °C. PBP-containing membranes were isolated by ultracentrifugation at 150,000× g for 30 min at 4 °C. Total protein concentrations were measured through the Bradford method.
(§2) Subsequently, the fluorescent penicillin bocillin FL was added to a 25 μM final concentration. Labeled PBPs were denatured and separated through 4–15% SDS–polyacrylamide gel electrophoresis. Labeled PBPs were visualized using a Typhoon FLA 9500 biomolecular imager (GE Healthcare Bio-Sciences AB, Uppsala, Sweden) (excitation at 488 nm and emission at 530 nm), and binding was determined from at least three independent experiments using ImageQuant TL software v8.1.0.0 (GE Healthcare Bio-Sciences AB, Uppsala, Sweden).

In assay [2] the target is T2, PBP2 (Pseudomonas aeruginosa, UniProt Q9X6V3).
T2 construct: PBP-containing membranes were isolated by ultracentrifugation; endogenous in cells; host or cells: P. aeruginosa PAO1 wild type (membrane preparations or intact cells)
T2 sequence (Q9X6V3 entry or part of it): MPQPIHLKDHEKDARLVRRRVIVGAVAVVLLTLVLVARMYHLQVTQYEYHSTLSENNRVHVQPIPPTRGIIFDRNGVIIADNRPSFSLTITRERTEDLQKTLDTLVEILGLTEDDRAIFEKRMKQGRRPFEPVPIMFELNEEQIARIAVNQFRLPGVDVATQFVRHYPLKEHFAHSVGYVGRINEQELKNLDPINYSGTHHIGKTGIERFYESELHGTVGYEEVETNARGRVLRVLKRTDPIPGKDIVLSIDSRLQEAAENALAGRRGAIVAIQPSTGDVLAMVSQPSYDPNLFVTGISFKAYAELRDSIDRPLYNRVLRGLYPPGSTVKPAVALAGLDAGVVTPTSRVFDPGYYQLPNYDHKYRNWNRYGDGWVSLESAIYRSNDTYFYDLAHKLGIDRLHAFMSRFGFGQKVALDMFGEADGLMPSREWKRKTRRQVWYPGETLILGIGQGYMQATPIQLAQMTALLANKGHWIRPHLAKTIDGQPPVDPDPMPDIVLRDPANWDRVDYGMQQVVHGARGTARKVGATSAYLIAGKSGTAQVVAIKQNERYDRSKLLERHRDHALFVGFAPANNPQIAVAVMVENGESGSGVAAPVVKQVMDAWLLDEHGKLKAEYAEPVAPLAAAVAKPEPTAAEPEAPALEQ
The description is as above. The settings on record: PAO1 membranes 0.5 mg/mL, 30 min, 25 µM bocillin FL; read-out: Mean IC50 ± SD, PBP 2 (converted). Further details: species or system P. aeruginosa PAO1. The procedure:
as §1, §2

The target of assay [3] is T3, PBP1a (Pseudomonas aeruginosa, UniProt Q07806).
T3 construct: PBP-containing membranes were isolated by ultracentrifugation; endogenous in cells; host or cells: P. aeruginosa PAO1 wild type (membrane preparations or intact cells)
T3 sequence (Q07806 whole entry): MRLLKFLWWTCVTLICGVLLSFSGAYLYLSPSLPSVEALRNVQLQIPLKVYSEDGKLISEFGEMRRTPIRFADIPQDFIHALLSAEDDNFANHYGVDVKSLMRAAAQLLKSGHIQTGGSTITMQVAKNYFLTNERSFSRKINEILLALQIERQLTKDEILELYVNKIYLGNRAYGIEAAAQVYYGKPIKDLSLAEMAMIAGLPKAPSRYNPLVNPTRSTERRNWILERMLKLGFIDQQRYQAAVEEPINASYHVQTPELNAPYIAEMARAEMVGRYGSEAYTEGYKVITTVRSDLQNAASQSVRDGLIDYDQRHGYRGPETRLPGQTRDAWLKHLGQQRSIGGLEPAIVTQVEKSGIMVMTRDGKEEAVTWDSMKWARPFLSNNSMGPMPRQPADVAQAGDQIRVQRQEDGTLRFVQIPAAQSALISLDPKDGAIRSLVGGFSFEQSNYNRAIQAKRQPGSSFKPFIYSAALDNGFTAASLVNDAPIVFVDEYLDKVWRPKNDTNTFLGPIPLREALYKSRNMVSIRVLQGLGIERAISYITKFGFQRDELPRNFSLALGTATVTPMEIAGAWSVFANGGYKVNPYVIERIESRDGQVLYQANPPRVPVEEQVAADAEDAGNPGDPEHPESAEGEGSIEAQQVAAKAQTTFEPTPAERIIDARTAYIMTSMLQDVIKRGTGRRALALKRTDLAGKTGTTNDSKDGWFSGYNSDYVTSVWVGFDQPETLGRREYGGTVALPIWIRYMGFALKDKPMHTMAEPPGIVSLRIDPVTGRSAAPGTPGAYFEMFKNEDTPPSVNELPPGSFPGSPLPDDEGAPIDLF
The assay is described as above. Further details: species or system P. aeruginosa PAO1. The settings on record: PAO1 membranes 0.5 mg/mL, 30 min, 25 µM bocillin FL. The procedure:
as §1, §2

The target in assay [4] is T4, PBP5/6 (Pseudomonas aeruginosa, UniProt G3XD74). The description is as above. Also on record: species or system P. aeruginosa PAO1. The settings on record: PAO1 membranes 0.5 mg/mL, 30 min, 25 µM bocillin FL; read-out: Mean IC50 ± SD, PBP 5/6 (converted). The procedure:
as §1, §2

Assay [5] concerns the target T5, PBP1b (Pseudomonas aeruginosa, UniProt G3XD31). Described as above. Further details: species or system P. aeruginosa PAO1. The settings on record: PAO1 membranes 0.5 mg/mL, 30 min, 25 µM bocillin FL; read-out: Mean IC50 ± SD, PBP 1b (converted). The procedure: as §1, §2
Assay [6] addresses T6, PBP3 (Pseudomonas aeruginosa, UniProt G3XD46).
T6 construct: PBP-containing membranes were isolated by ultracentrifugation; endogenous in cells; host or cells: P. aeruginosa PAO1 wild type (membrane preparations or intact cells)
The assay is described as follows: biochemical. It is filed as binding, P. aeruginosa PAO1. The settings on record: PAO1 membranes 0.5 mg/mL, 30 min, 25 µM bocillin FL. The procedure:
as §1, §2

Assay [7] addresses T6, PBP3. The assay can be described thus: Intact cells' time-course of PBP-binding assay. The assay is classed as cell-based, P. aeruginosa PAO1. The note with it: intact PAO1 cells, 4 µg/mL avibactam, up to 60 min. Here is the method: (§3) Figure 2 Time-course of intact cells and isolated PBP-binding assay. P. aeruginosa PAO1 cultures (a) and isolated PBP-containing membrane preparations (b) were incubated for 15, 30 and 60 min in the presence of 4 µg/mL avibactam (AVI). After isolating PBP-containing membranes, preparations were labeled with 25 µM bocillin FL. The graphs represent the PBP fraction unbound relative to each time control over time. The mean PBP fraction unbound values from at least three independent experiments ± standard deviations are shown.
(§4) P. aeruginosa PAO1 cultures grown to the midexponential phase (7.6 log10 CFU/mL) were preincubated in cation-adjusted Mueller–Hinton broth (CAMHB) at 37 °C (180 rpm) for 20 min. Afterwards, 4 µg/mL of avibactam (AVI) was added, and the bacterial cultures were incubated (37 °C, 180 rpm). Control and treatment samples were taken after 15, 30 and 60 min incubation, kept in ice and centrifuged (3220× g for 10 min at 4 °C). The bacterial pellets were washed in 30 mL phosphate-buffered saline (PBS) (pH 7.5) four times, resuspended in 10 mL of PBS and sonicated by using a Digital Sonifier Unit model S-450D (Branson Ultrasonics Corp., Danbury, CT, USA) at 40% amplitude for three 2 min bursts (while immersed in an ice bath) and centrifuged at 3220× g for 15 min at 4 °C. Membranes containing the PBPs were isolated by ultracentrifugation at 150,000× g for 30 min at 4 °C using an Optima L100XP Ultra centrifuge (Beckman Coulter, Inc., Palo Alto, CA, USA) and were resuspended in 60 μL of PBS. Total protein content was measured using the Quick Start Bradford protein assay kit with bovine serum albumin as a standard (Bio-Rad Laboratories, Hercules, CA, USA), according to the manufacturer’s instructions. To determine the PBP fraction unbound, membranes containing PBPs (20 μL, at 0.5 mg/mL) were labeled with a 25 μM concentration of the fluorescent penicillin bocillin FL [32]. Labeled PBPs were denatured and separated through 4–15% SDS–polyacrylamide gel electrophoresis (Bio-Rad Laboratories, Hercules, CA, USA). Labeled PBPs were visualized using a Typhoon FLA 9500 biomolecular imager (GE Healthcare Bio-Sciences AB, Uppsala, Sweden) (excitation at 488 nm and emission at 530 nm), and binding to different PBPs was determined from at least three independent experiments using ImageQuant TL software v8.1.0.0 (GE Healthcare Bio-Sciences AB, Uppsala, Sweden).

The target in assay [8] is T1, PBP4. The assay can be described thus: Intact cells' time-course of PBP-binding assay. The note with it: 1 h; intact PAO1 cells, 4 µg/mL avibactam, 60 min; read-out: PBP4 fraction bound. The assay is classed as cell-based, P. aeruginosa PAO1. The procedure:
as §3, §4

Assay [9] deals with T2, PBP2. The assay is described as follows: Intact cells' time-course of PBP-binding assay. It is filed as cell-based, P. aeruginosa PAO1. The settings on record: intact PAO1 cells, 4 µg/mL avibactam, 60 min. The procedure:
as §3, §4

The target of assay [10] is T3, PBP1a. The assay can be described thus: Intact cells' time-course of PBP-binding assay. The assay is classed as cell-based, P. aeruginosa PAO1. The settings on record: intact PAO1 cells, 4 µg/mL avibactam, up to 60 min. Here is the method: as §3, §4
Assay [11] has as its target T4, PBP5/6. The assay can be described thus: Intact cells' time-course of PBP-binding assay. The assay is classed as cell-based, P. aeruginosa PAO1. The note with it: intact PAO1 cells, 4 µg/mL avibactam, up to 60 min. The procedure: as §3, §4
Assay [12] deals with T5, PBP1b. The assay is described as follows: Intact cells' time-course of PBP-binding assay. The assay is classed as cell-based, P. aeruginosa PAO1. The settings on record: 1 h; intact PAO1 cells, 4 µg/mL avibactam, 60 min; read-out: PBP1b fraction bound. Here is the method:
as §3, §4

Structures are written as SMILES.

T6 sequence (G3XD46 whole entry): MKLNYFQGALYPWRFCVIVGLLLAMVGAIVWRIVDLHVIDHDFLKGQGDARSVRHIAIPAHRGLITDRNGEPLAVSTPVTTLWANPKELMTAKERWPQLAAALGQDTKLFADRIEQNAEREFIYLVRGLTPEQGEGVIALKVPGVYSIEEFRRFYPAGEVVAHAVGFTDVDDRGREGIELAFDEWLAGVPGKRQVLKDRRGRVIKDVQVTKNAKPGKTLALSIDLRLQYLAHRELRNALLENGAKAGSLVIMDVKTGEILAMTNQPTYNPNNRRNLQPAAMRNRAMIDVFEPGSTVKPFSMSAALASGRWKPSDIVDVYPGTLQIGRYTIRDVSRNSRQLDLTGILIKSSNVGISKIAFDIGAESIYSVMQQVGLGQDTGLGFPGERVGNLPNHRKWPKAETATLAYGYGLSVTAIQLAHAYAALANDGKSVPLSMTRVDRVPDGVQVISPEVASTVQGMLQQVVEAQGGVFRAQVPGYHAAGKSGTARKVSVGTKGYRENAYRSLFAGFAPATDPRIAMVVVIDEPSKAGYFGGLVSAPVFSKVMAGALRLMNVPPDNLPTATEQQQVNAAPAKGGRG
T5 sequence (G3XD31 entry or part of it): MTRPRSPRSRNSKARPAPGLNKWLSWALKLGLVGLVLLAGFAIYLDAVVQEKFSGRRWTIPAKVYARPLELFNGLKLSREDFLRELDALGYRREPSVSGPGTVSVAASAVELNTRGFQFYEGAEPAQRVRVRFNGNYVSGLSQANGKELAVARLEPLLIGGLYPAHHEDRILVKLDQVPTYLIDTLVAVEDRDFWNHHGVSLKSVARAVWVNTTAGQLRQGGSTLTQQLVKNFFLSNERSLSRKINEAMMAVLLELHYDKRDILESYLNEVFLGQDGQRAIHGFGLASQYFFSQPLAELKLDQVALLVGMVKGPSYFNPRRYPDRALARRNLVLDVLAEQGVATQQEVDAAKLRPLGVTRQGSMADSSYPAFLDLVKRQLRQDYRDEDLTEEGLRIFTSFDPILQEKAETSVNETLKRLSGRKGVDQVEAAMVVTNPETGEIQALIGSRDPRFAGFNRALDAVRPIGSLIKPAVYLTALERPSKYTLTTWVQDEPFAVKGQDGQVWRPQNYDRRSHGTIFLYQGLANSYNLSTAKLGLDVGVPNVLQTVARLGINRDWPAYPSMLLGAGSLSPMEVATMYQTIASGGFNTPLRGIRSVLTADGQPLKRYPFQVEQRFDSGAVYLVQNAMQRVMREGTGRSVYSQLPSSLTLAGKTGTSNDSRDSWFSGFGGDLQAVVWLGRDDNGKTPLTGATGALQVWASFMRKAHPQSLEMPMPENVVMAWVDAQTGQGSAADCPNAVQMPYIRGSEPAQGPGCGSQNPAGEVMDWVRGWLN
T1 sequence (Q9HZG1 entry or part of it): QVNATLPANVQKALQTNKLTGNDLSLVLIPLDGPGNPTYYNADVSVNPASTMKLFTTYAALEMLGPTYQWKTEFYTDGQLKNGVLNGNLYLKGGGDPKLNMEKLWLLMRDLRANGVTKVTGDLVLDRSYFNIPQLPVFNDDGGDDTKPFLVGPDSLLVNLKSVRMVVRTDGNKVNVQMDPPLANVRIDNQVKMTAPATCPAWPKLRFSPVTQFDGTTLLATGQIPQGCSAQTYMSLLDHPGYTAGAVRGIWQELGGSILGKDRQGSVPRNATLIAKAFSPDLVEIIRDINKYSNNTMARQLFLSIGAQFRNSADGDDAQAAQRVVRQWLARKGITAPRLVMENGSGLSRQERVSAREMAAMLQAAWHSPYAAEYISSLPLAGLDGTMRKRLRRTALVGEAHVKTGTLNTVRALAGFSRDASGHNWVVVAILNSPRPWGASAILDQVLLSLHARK
T4 sequence (G3XD74 entry or part of it): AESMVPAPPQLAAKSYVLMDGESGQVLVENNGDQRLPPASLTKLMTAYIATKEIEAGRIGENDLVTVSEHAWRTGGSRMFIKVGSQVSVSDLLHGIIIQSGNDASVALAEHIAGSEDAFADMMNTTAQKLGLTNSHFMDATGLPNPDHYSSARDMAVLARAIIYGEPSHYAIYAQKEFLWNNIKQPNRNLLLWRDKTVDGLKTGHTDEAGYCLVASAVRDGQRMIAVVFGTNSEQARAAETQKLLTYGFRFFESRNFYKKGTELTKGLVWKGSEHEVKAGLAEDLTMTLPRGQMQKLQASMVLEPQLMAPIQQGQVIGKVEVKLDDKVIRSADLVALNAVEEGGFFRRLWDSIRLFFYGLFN

Regarding `NC(=O)[C@@H]1CC[C@@H]2CN1C(=O)N2OS(=O)(=O)O` [Avibactam], the IC50 at PBP4 [1] was 11.7 µM; on PBP2 [2] it was 15.8 µM; at PBP1a [3] (read-out: Mean IC50 ± SD, PBP 1a (converted)), greater than 121 µM; at PBP5/6 [4] it was 8.29 µM; at PBP1b [5], 13.6 µM; at PBP3 [6] (read-out: Mean IC50 ± SD, PBP 3 (converted)), greater than 121 µM. The “Mean IC50 ± SD, PBP 1a” value at PBP1a [3] is “no PBP1a and 3 binding was detected”. Moreover, the “Mean IC50 ± SD, PBP 3” value at PBP3 [6] was “no PBP1a and 3 binding was detected”. For the same compound, the “PBP3 binding in whole-cell assay” value on PBP3 [7] is “No significant”. The inhibition at 4 µg/mL on PBP4 [8] was no more than 50%; at PBP1b [12] it was 20%. The PBP2 fraction bound at PBP2 [9] amounted to 20%. Further, the “PBP1a binding in whole-cell assay” value on PBP1a [10] is recorded as “No significant”. Besides, the “PBP5/6 binding in whole-cell assay” value on PBP5/6 [11] was “No significant”.
